# Columns and labels:
# [1] = Lipophilicity, log K of the compound in water; assay type: physicochemical; conditions: buffer
# Phytophthora cactorum [2] = assay: Antifungal activity against Phytophthora cactorum assessed as inhibition of mycelial growth at 20 ppm at 21 +/- 1 degC measured after 5 days; assay type: functional; conditions: 120 h, read-out: GI
# [3] = Octanol-water partition coefficient, log P of the compound; assay type: physicochemical
# Fusarium culmorum [4] = assay: Antifungal activity against Fusarium culmorum assessed as inhibition of mycelial growth at 200 ppm at 21 +/- 1 degC measured after 5 days; assay type: functional; conditions: 120 h, read-out: GI
# Botrytis cinerea [5] = assay: Antifungal activity against Botryotinia fuckeliana assessed as inhibition of mycelial growth at 20 ppm at 21 +/- 1 degC measured after 3 days; assay type: functional; conditions: 72 h, read-out: GI
# Alternaria alternata [6] = assay: Antifungal activity against Alternaria alternata assessed as inhibition of mycelial growth at 200 ppm at 21 +/- 1 degC measured after 5 days; assay type: functional; conditions: 120 h, read-out: GI
# Fusarium culmorum [7] = assay: Antifungal activity against Fusarium culmorum assessed as inhibition of mycelial growth at 20 ppm at 21 +/- 1 degC measured after 5 days; assay type: functional; conditions: 120 h, read-out: GI
# Botrytis cinerea [8] = assay: Antifungal activity against Botryotinia fuckeliana assessed as inhibition of mycelial growth at 200 ppm at 21 +/- 1 degC measured after 3 days; assay type: functional; conditions: 72 h, read-out: GI
# Rhizoctonia solani [9] = assay: Antifungal activity against Rhizoctonia solani assessed as inhibition of mycelial growth at 20 ppm at 21 +/- 1 degC measured after 4 days; assay type: functional; conditions: 96 h, read-out: GI
# Phytophthora cactorum [10] = assay: Antifungal activity against Phytophthora cactorum assessed as inhibition of mycelial growth at 200 ppm at 21 +/- 1 degC measured after 5 days; assay type: functional; conditions: 120 h, read-out: GI
# Rhizoctonia solani [11] = assay: Antifungal activity against Rhizoctonia solani assessed as inhibition of mycelial growth at 200 ppm at 21 +/- 1 degC measured after 4 days; assay type: functional; conditions: 96 h, read-out: GI
# Alternaria alternata [12] = assay: Antifungal activity against Alternaria alternata assessed as inhibition of mycelial growth at 20 ppm at 21 +/- 1 degC measured after 5 days; assay type: functional; conditions: 120 h, read-out: GI
logKw [1],logP [3],SMILES,inhibition of growth at 20 ppm (Phytophthora cactorum [2]),inhibition of growth at 200 ppm (Fusarium culmorum [4]),inhibition of growth at 20 ppm (Botrytis cinerea [5]),inhibition of growth at 200 ppm (Alternaria alternata [6]),inhibition of growth at 20 ppm (Fusarium culmorum [7]),inhibition of growth at 200 ppm (Botrytis cinerea [8]),inhibition of growth at 20 ppm (Rhizoctonia solani [9]),inhibition of growth at 200 ppm (Phytophthora cactorum [10]),inhibition of growth at 200 ppm (Rhizoctonia solani [11]),inhibition of growth at 20 ppm (Alternaria alternata [12])
4.55,4.27,C=C(C)c1ccccc1NC(=S)c1ccc(O)cc1O,51%,81%,51%,81%,51%,81%,51%,81%,81%,51%
3.96,3.43,O=[N+]([O-])c1cc(NC(=S)c2ccc(O)cc2O)ccc1F,21%,81%,21%,81%,21%,81%,51%,81%,81%,21%
2.49,2.79,Oc1ccc(C(=S)Nc2ccc(N3CCOCC3)cc2)c(O)c1,0%,21%,0%,0%,0%,21%,0%,21%,0%,0%
2.52,2.39,COc1ccc(NC(=S)c2ccc(O)cc2O)cc1O,0%,51%,0%,51%,0%,51%,0%,21%,51%,0%
2.99,4.45,Oc1ccc(C(=S)Nc2nc(=S)ss2)c(O)c1,51%,81%,51%,81%,21%,81%,21%,81%,81%,21%
6.06,4.75,Oc1ccc(C(=S)Nc2cc(C(F)(F)F)cc(C(F)(F)F)c2)c(O)c1,51%,81%,51%,81%,51%,81%,21%,81%,81%,51%
3.59,3.29,Oc1ccc(C(=S)Nc2ccccc2-n2cccc2)c(O)c1,21%,81%,21%,81%,51%,81%,51%,81%,81%,21%
4.87,3.89,Cc1ccc2sc(-c3ccc(NC(=S)c4ccc(O)cc4O)cc3)nc2c1,0%,21%,0%,21%,0%,0%,0%,0%,0%,0%
3.56,4.22,Oc1ccc(C(=S)Nc2cccc3c2CCCC3)c(O)c1,51%,81%,51%,81%,51%,81%,51%,81%,81%,51%

# More lines, now with the values behind:
SMILES,logKw [1],logP [3],inhibition of growth at 20 ppm (Phytophthora cactorum [2]),inhibition of growth at 200 ppm (Fusarium culmorum [4]),inhibition of growth at 20 ppm (Botrytis cinerea [5]),inhibition of growth at 200 ppm (Alternaria alternata [6]),inhibition of growth at 20 ppm (Fusarium culmorum [7]),inhibition of growth at 200 ppm (Botrytis cinerea [8]),inhibition of growth at 20 ppm (Rhizoctonia solani [9]),inhibition of growth at 200 ppm (Phytophthora cactorum [10]),inhibition of growth at 200 ppm (Rhizoctonia solani [11]),inhibition of growth at 20 ppm (Alternaria alternata [12])
Cc1cc(NC(=S)c2ccc(O)cc2O)ccc1N1C(=O)c2ccc(Cl)cc2C1=O,3.63,4.57,0%,21%,0%,21%,0%,0%,0%,0%,0%,0%
CCCN(CCOc1c(Cl)cc(Cl)cc1Cl)C(=O)n1ccnc1 [PROCHLORAZ],,,81%,81%,,81%,81%,,,81%,,81%
Oc1ccc(C(=S)N(c2ccccc2)c2nnns2)c(O)c1,3.3,,21%,81%,51%,81%,21%,81%,21%,81%,81%,51%
CCN(C(=S)c1ccc(O)cc1O)c1cccc2ccccc12,5.09,5.03,0%,21%,0%,21%,0%,0%,0%,21%,0%,0%
COC(=O)Nc1nc2ccccc2[nH]1 [CARBENDAZIM],,,81%,81%,,,81%,,81%,81%,81%,
CC12CC1(C)C(=O)N(c1cc(Cl)cc(Cl)c1)C2=O (stereo not drawn) [PROCYMIDONE],,,,,81%,81%,,81%,,,,81%
Oc1ccc(C(=S)N(Cc2ccccc2)c2ccccn2)c(O)c1,3.96,4.56,0%,21%,0%,21%,0%,51%,0%,21%,21%,0%
O=C(c1ccccc1)c1ccc(NC(=S)c2ccc(O)cc2O)cc1,4.28,4.12,21%,51%,0%,51%,0%,51%,0%,51%,51%,0%
